Experimental data from patent US11247965B2 (VenatoRx Pharmaceuticals, Inc., priority 2017, dated 2022).

Assays:
[1] = system: HBV replication in HepAD38 cells; experiment: Anti-HBV activity in HepAD38 cells, extracellular HBV DNA by QPCR; type: cell-based, HBV (genotype D, serotype ayw); conditions: Hepatitis B virus, HePAD38, 168 h, read-out: Anti-HBV EC50, HepAD38 cells, extracellular HBV DNA by QPCR, 7 days of incubation
Method in brief: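 Seven-day compound exposure (30 μM down to 10 nM, half-log steps) after tetracycline withdrawal induced HBV replication in HepAD38 cells. Extracellular viral DNA measured by QPCR (copies/mL via standard curve), normalised to DMSO wells; EC50 from 4-parameter non-linear regression.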

[2] = In vitro cytotoxicity, MTT cell viability assay in HepG2 cells; type: cell-based; conditions: human, Cytotoxicity CC50
Method in brief: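 Using MTT conversion as the viability measure, HepG2 cells were incubated with compounds for 7 days (30 μM to 1.0 nM). Absorbance at 492 nm was normalized to vehicle and fitted to give CC50.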

Cc1cc(NC(=O)c2nn(C)cc2C(F)(F)C(=O)NC(C)(C)C)ccc1F [Example 166, 4-(2-(tert-butylamino)-1,1-difluoro-2-oxoethyl)-N-(4-fluoro-3-methylphenyl)-1-methyl-1H-pyrazole-3-carboxamide]
EC50 [1]: 5 to 30 µM | CC50 at 7 days [2]: > 30 µM

O=C(Nc1ccnc(Cl)c1)c1ccc(F)c(C(F)(F)C(=O)N2CCC(O)CC2)c1 [Example 167, N-(2-chloropyridin-4-yl)-3-(1,1-difluoro-2-(4-hydroxypiperidin-1-yl)-2-oxoethyl)-4-fluorobenzamide]
EC50 [1]: 5 to 30 µM | CC50 at 7 days [2]: 5 to 30 µM

Cc1cc(NC(=O)c2cccc(C(F)(F)C(=O)N3CCC(O)CC3)c2Cl)ccc1F [Example 168, 2-chloro-3-(1,1-difluoro-2-(4-hydroxypiperidin-1-yl)-2-oxoethyl)-N-(4-fluoro-3-methylphenyl)benzamide]
EC50 [1]: < 5 µM | CC50 at 7 days [2]: 5 to 30 µM

O=C(Nc1ccc(F)c(Cl)c1)c1ccc(F)c(C(F)(F)C(=O)N2CCC(O)C(F)(F)C2)c1 (stereo not drawn) [Example 169, N-(3-chloro-4-fluorophenyl)-3-(2-(3,3-difluoro-4-hydroxypiperidin-1-yl)-1,1-difluoro-2-oxoethyl)-4-fluorobenzamide]
EC50 [1]: < 5 µM | CC50 at 7 days [2]: 5 to 30 µM

O=C(Nc1ccc(F)c(Cl)c1)c1ccc(F)c(C(F)(F)C(=O)N2[C@@H]3CC[C@H]2C[C@@H](O)C3)c1 [Example 170, N-(3-chloro-4-fluorophenyl)-3-(1,1-difluoro-2-((1R,3r,5S)-3-hydroxy-8-azabicyclo[3.2.1]octan-8-yl)-2-oxoethyl)-4-fluorobenzamide]
EC50 [1]: < 5 µM | CC50 at 7 days [2]: 5 to 30 µM

O=C(Nc1ccc(F)c(Cl)c1)c1ccc(F)c(C(F)(F)C(=O)N2[C@@H]3CC[C@H]2C[C@H](O)C3)c1 [Example 171, N-(3-chloro-4-fluorophenyl)-3-(1,1-difluoro-2-((1R,3s,5S)-3-hydroxy-8-azabicyclo[3.2.1]octan-8-yl)-2-oxoethyl)-4-fluorobenzamide]
EC50 [1]: < 5 µM | CC50 at 7 days [2]: 5 to 30 µM

O=C(Nc1ccc(F)c(Cl)c1)c1ccc(F)c(C(F)(F)C(=O)N2CCC(O)(CO)CC2)c1 [Example 172, N-(3-chloro-4-fluorophenyl)-3-(1,1-difluoro-2-(4-hydroxy-4-(hydroxymethyl)piperidin-1-yl)-2-oxoethyl)-4-fluorobenzamide]
EC50 [1]: < 5 µM | CC50 at 7 days [2]: 5 to 30 µM

O=C(Nc1cc(F)c(F)c(F)c1)c1ccc(F)c(C(F)(F)C(=O)N2[C@@H]3CC[C@H]2C[C@@H](O)C3)c1 [Example 173]
EC50 [1]: < 5 µM | CC50 at 7 days [2]: 5 to 30 µM

O=C(Nc1cc(F)c(F)c(F)c1)c1ccc(F)c(C(F)(F)C(=O)N2CCC(O)(CO)CC2)c1 [Example 174, 3-(1,1-difluoro-2-(4-hydroxy-4-(hydroxymethyl)piperidin-1-yl)-2-oxoethyl)-4-fluoro-N-(3,4,5-trifluorophenyl)benzamide]
EC50 [1]: < 5 µM | CC50 at 7 days [2]: 5 to 30 µM

O=C(Nc1ccc(F)c(Br)c1)c1ccc(F)c(C(F)(F)C(=O)N2CCC(O)C(F)(F)C2)c1 (stereo not drawn) [Example 175, N-(3-bromo-4-fluorophenyl)-3-(2-(3,3-difluoro-4-hydroxypiperidin-1-yl)-1,1-difluoro-2-oxoethyl)-4-fluorobenzamide]
EC50 [1]: < 5 µM | CC50 at 7 days [2]: 5 to 30 µM

O=C(Nc1ccc(F)c(Br)c1)c1ccc(F)c(C(F)(F)C(=O)N2[C@@H]3CC[C@H]2C[C@@H](O)C3)c1 [Example 176, N-(3-bromo-4-fluorophenyl)-3-(1,1-difluoro-2-((1R,3r,5S)-3-hydroxy-8-azabicyclo[3.2.1]octan-8-yl)-2-oxoethyl)-4-fluorobenzamide]
EC50 [1]: < 5 µM | CC50 at 7 days [2]: 5 to 30 µM

N#Cc1cc(NC(=O)c2ccc(F)c(C(F)(F)C(=O)N3CCC(O)C(F)(F)C3)c2)ccc1F (stereo not drawn) [Example 177, N-(3-cyano-4-fluorophenyl)-3-(2-(3,3-difluoro-4-hydroxypiperidin-1-yl)-1,1-difluoro-2-oxoethyl)-4-fluorobenzamide]
EC50 [1]: < 5 µM | CC50 at 7 days [2]: 5 to 30 µM
